Test results published in patent US8883826B2, “Alkynyl derivatives as modulators of metabotropic glutamate receptors” (Addex Pharma SA, priority 2004, dated 2014).
“Also recorded” adds a separate entry of the source.

Key:
[1] = molecular target: T1, mGluR5 (Rattus norvegicus, UniProt P31424); assay: mGluR5 binding assay ([3H]-MPEP radioligand competition); settings: competition with 3 nM [3H]-MPEP, rat brain cortical membranes, 1 h at 4 °C; mean of at least three independent experiments in duplicate
T1 construct: tissue Charles River Laboratories; host or cells: rat brain cortex membranes (Sprague-Dawley)
Procedure, shortened: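 Rat cortical membranes (50 μg) were incubated 1 h at 4 °C with 3 nM [3H]-MPEP and compound (0.003 nM-30 μM, 8 points) in HEPES buffer pH 7.4 with Mg2+, Ca2+ and NaCl. 30 μM MPEP defined non-specific binding, and bound label was counted after filtration. IC50 came from non-linear regression, as the mean of ≥3 experiments run in duplicate.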

[2] = test system: Male Sprague-Dawley rats; assay: Vogel conflict drinking model of anxiety; type: in vivo, rat; settings: n=9-10/group
Source text: Vogel Conflict Drinking Model of Anxiety in Rats
The Vogel conflict drinking model involves the conflict between thirst and receiving mild shocks for drinking water (punished drinking). Water-deprived rats are placed in a chamber and are periodically shocked for drinking water. The shocks suppress drinking and anxiolytics reverse this shock-induced suppression of drinking. The Vogel conflict drinking model was first proposed as a screening model for anxiolytics (Vogel, J. R. et al., Psychopharmacologia (Berl.), 21:1-7 (1971)) and is widely accepted as a robust model for testing the anxiolytic-like properties of compounds (Millan, M. J. and Brocco M., European Journal of Pharmacology, 463:67-96 (2003)).
Such compounds may be useful in the treatment of anxiety and related disorders. […]
The effect of compounds on drinking in the Vogel conflict drinking model in rats was tested. […] The number of punished drinks was counted automatically by the computer interface. […]
Statistical analyses were performed using GraphPad PRISM version 4.01 statistical software (GraphPad, San Diego, Calif., USA). Data were analyzed using one-way analysis of variance (ANOVA) followed by Bonferroni multiple comparisons. […]

[3] = test system: Male C57BL6/j mice; assay: Marble burying model of anxiety; type: in vivo, mouse; settings: 30 mg/kg po, 60 minutes prior to test, n=10/group, t=3.686, p<0.01
Source text: Marble Burying Model of Anxiety
Marble burying behavior in mice is reduced by compounds which are efficacious anxiolytics in humans. Thus, marble burying in mice has been used as a model for the prediction of anxiolytic-like effects of compounds (Millan, M. J. et al., Neuropharmacology, 42:677-684 (2002)).
Selective negative allosteric modulators (allosteric antagonists) of the metabotropic glutamate receptor subtype 5 (mGluR5) have been shown previously to reduce marble burying in mice (Spooren, W. P. et al., Journal of Pharmacology and Experimental Therapeutics, 295:1267-1275 (2000)). […] Such compounds may be useful in the treatment of anxiety and related disorders.
The present studies were performed in accordance with the animal care and use policies of Addex Pharmaceuticals and the EEC directives on the protection of animals used for experimental and other scientific purposes (86/609/EEC and subsequent revisions). […]
The effect of compounds on marble burying in mice was tested. […] After removal of the mice from the test cages, the number of marbles buried was counted. […]
Statistical analyses were performed using GraphPad PRISM version 4.01 statistical software (GraphPad, San Diego, Calif., USA). Data were analyzed using one-way analysis of variance (ANOVA) followed by Bonferroni-corrected multiple comparisons, or t tests if only 2 groups were present. […]

T1 sequence (P31424 21-1203): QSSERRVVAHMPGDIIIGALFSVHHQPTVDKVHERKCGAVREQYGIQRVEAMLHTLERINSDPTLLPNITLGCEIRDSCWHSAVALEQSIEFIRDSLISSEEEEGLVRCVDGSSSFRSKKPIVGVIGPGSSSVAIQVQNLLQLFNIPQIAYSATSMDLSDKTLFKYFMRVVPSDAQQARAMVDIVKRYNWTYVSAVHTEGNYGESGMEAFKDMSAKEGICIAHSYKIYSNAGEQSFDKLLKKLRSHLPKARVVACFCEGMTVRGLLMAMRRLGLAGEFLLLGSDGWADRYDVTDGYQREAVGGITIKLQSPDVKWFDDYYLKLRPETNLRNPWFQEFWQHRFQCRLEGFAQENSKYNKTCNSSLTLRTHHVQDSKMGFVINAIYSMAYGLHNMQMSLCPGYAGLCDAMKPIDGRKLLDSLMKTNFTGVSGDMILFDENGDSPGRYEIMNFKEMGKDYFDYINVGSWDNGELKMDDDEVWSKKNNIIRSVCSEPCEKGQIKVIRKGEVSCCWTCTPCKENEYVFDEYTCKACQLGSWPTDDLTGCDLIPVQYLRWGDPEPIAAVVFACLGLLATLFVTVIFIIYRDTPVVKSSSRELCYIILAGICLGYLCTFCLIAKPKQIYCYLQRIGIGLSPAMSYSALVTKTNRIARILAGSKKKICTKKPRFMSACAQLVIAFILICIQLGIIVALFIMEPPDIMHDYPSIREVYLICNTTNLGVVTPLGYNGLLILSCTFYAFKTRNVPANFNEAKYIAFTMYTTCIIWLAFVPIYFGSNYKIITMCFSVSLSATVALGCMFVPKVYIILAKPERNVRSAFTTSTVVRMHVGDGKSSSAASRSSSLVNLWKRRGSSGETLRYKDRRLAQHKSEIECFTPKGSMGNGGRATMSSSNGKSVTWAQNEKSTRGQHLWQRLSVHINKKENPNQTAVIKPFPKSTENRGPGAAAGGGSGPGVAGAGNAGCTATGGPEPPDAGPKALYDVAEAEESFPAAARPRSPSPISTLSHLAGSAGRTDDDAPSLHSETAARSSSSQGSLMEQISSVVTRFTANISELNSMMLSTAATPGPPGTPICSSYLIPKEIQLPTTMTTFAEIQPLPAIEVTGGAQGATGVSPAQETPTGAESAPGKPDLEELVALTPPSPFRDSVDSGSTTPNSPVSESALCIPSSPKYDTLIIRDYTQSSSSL

Row | Structure (SMILES) | IC50 [1] [nM] | melting point [°C] | punished drinking in the Vogel conflict drinking test (vs vehicle) ([2]; 30 mg/kg po, t(1, 17)=2.593, hydrochloride) | marble burying in mice (number of marbles buried vs vehicle) [3] | punished drinking in the Vogel conflict drinking test (vs vehicle) ([2]; 10 mg/kg po, t=3.585, p<0.01)
1 | Cl.FCc1cccc(C#CCCn2nc3ccccc3n2)n1 [Example 130, 2-(4-(6-(Fluoromethyl)pyridin-2-yl)but-3-ynyl)-2H-benzo[d][1,2,3]triazole hydrochloride] | < 50 | 172.5 to 173.5 | significantly increases punished drinking; also recorded: took significantly more punished licks than vehicle injected controls | – | –
2 | FCc1cccc(C#CCCc2cn3cccc(Cl)c3n2)n1 [Example 256, 8-Chloro-2-(4-(6-(fluoromethyl)pyridin-2-yl)but-3-ynyl)-imidazo[1,2-a]pyridine] | < 50 | 73 to 74.5 | – | significantly attenuates marble burying; also recorded: buried fewer marbles than vehicle-treated mice | significantly increases punished drinking; also recorded: accepted significantly more shocks than vehicle-treated rats
